As usually defined, the AUC(0-t) is the area under the concentration-time curve up to a stated or last time point. As usually defined, the Tmax is the time from dosing to the highest level. As usually defined, the Cmax is the maximum level reached in the sampled fluid or tissue.

This note sets out measurements from article PMC9230201, “Sustained Consumption of a Decaffeinated Green Coffee Nutraceutical Has Limited Effects on Phenolic Metabolism and Bioavailability in Overweight/Obese Subjects” (Nutrients, 2022).

A short description of data set [1]: Plasma pharmacokinetics of phenolic metabolites after intake of the GCPE nutraceutical (LC-MS-QToF). The conditions noted are these: human, oral; for AUC(0-t) / Tmax: 300 mg hydroxycinnamic acids; for AUC(0-t): AUC0–24h; for Tmax: Tmax (h) or Range; for Cmax: 300 mg, mean ± SEM, n = 9.
Data set [2] is described as follows: Urinary excretion of phenolic metabolites after intake of the GCPE nutraceutical. The note with it: for Cumulative urinary excretion, Total 0–24 h: urine, mean ± SEM, n = 9.
The nature of data set [3]: Fecal excretion of phenolic metabolites after intake of the GCPE nutraceutical. The note with it: feces.
Experimental: Participants attended the Human Nutrition Unit (HNU) at the Institute of Food Science, Technology and Nutrition (ICTAN-CSIC) on two consecutive days at the beginning of the intervention (week 0) and also on two consecutive days at the end of the study, after consuming daily two doses of the GCPE nutraceutical, providing 600 mg/d phenols, during two months (week 8). […] A licensed health care professional placed an intravenous catheter in the subjects′ nondominant arm and collected a fasting blood sample (baseline, 0 h). Then, subjects drank the soluble GCPE nutraceutical dissolved in 200 mL of water. […] On the sampling days, volunteers remained at the HNU, where a (poly)phenol-free diet was provided. Half an hour after consuming the nutraceutical, volunteers ate a breakfast consisting of ham, cheese, white bread, and a yogurt. Lunch (paella, bread, and yogurt) and an afternoon snack (muffin and yogurt) were eaten 5 and 9 h, respectively, after consuming the nutraceutical. Water and isotonic beverages were freely available. […] The same protocol was followed during visits at the end of the 8-week intervention. On each occasion, two days before each visit to the HNU, subjects consumed a low (poly)phenol diet free of foods containing hydroxycinnamates such as coffee, herbal teas, red wine, artichokes, whole grain cereals, vegetables, fruits and fruit juices, and dried fruits. Only banana, watermelon, cantaloupes, and potatoes were allowed.
Blood samples were immediately centrifuged (10 min, 3000 rpm, 4 °C) to obtain plasma. […] All biological samples were stored at −80 °C until analysis.
To extract plasma metabolites, 10 µL of 50% (v/v) aqueous formic acid, and 900 µL cold acetonitrile containing 50 µL of 10% (w/v) ascorbic acid were added to 400 µL defrosted plasma. Samples were vortexed and centrifuged (14,000 rpm, 10 min, 4 °C), repeating the extraction and combining the two supernatants, which were reduced to dryness under nitrogen [13]. Dried samples were resuspended in 150 µL of 0.1% aqueous formic acid (containing 10% acetonitrile acidified with 0.1% formic acid), centrifuged (15 min, 14,000 rpm, 4 °C), and the supernatant collected. Urine samples were diluted 1:1 with Milli-Q water and centrifuged (14,000 rpm, 20 min, 4 °C) prior to analysis. Phosphate-buffered saline (3 mL) was added to a representative 300 mg sample of thawed feces, homogenized in an ultrasound bath during 10 min, centrifuged (14,000 rpm, 20 min, 4 °C), and the supernatants collected.
Mobile phase A was 0.1% formic acid in Milli-Q water, and mobile phase B was acetonitrile containing 0.1% formic acid at a 0.3 mL/min flow rate. […] Metabolites were identified based on their retention time using authentic standards when possible. […] Urine concentration of excreted metabolites was normalized to the total volume excreted in each studied interval.
Plasma (30 µL), urine (5 µL) and fecal extracts (5 µL) were filtered through 0.45 µm
cellulose-acetate membrane filters and injected into an Agilent 1200 series LC system
ESI-Jet Stream Technology (Agilent Technologies). A reverse-phase Ascentis Express
C18 (15 cm x 3 mm, 2.7 µm) column (Sigma-Aldrich Quimica, Madrid), preceded by a
phase A was 0.1% formic acid in Milli-Q water, and mobile phase B was acetonitrile
containing 0.1% formic acid at a 0.3 mL/min flow rate. The gradient started with 10% B
at 0 min, 30% B at 10 min, 40% B at 15 min, reaching 50% B at 20 min. The starting
gradient was then re-established in 2 min and maintained for 8 min to re-equilibrate the
Setting [4] is: week 0, first peak where biphasic.
The mark [5] stands for this setting: week 8, first peak where biphasic.
Setting [6] is: week 0, GCPE nutraceutical with 300 mg hydroxycinnamic acids.
Where [7] appears, read: week 8, GCPE nutraceutical with 300 mg hydroxycinnamic acids.

Molecules are shown by their SMILES.

As for `COc1cc(CCC(=O)O)ccc1O` [DHFA, 3-(4′-Hydroxy-3′-methoxyphenyl)propanoic acid], the results for the AUC(0-t) in data set [1] (week 0) and in data set [1] (week 8) were 2.2 ± 0.6 µM·h and 1.8 ± 0.3 µM·h, respectively. For the same compound, the Tmax in data set [1] (setting [4]) was 7.6 ± 0.4 h; in data set [1] (setting [5]) it was 8.4 ± 0.6 h. Also, the Cmax was 300 ± 100 nM in data set [1] (setting [6]) and 250 ± 60 nM in data set [1] (setting [7]). Besides, the “Cumulative urinary excretion, Total 0–24 h” value in data set [2] (week 0) was 0.5 ± 0.2 µmol; in data set [2] (week 8) it was 1.1 ± 0.4 µmol. Also, the Amount excreted in urine, 0- 3 h worked out at 0.03 ± 0.02 µmol in data set [2] (week 0, interval 0–3 h) and 0.08 ± 0.07 µmol in data set [2] (week 8, interval 0–3 h). Moreover, the Amount excreted in urine, 3-6 h in data set [2] (week 0, interval 3–6 h) worked out at 0.007 ± 0.007 µmol; in data set [2] (week 8, interval 3–6 h) it was 0.03 ± 0.02 µmol. For the same compound, the Amount excreted in urine, 6-9 h in data set [2] (week 0, interval 6–9 h) worked out at 0.08 ± 0.04 µmol; in data set [2] (week 8, interval 6–9 h), 0.07 ± 0.05 µmol. The Amount excreted in urine, 9-11 h in data set [2] (week 0, interval 9–11 h) is 0.05 ± 0.02 µmol; in data set [2] (week 8, interval 9–11 h), 0.09 ± 0.04 µmol. Also, the Amount excreted in urine, 11-24 h was found to be 0.11 ± 0.05 µmol in data set [2] (week 0, interval 11–24 h) and 0.07 ± 0.04 µmol in data set [2] (week 8, interval 11–24 h). The “Amount of fecal metabolite excreted at 0 h” value in data set [3] (week 0, mean ± SEM, n = 9) is on record as 0.013 ± 0.004 µmol/g; in data set [3] (week 8), 0.018 ± 0.003 µmol/g. Besides, the “Amount of fecal metabolite excreted at 24 h” value in data set [3] (week 0) was 0.019 ± 0.007 µmol/g; in data set [3] (week 8) it was 0.014 ± 0.003 µmol/g.
Take `O=C(O)c1cccc(O)c1` [3-Hydroxybenzoic acid]: the AUC(0-t) in data set [1] (week 0) worked out at 0.7 ± 0.3 µM·h; in data set [1] (week 8), 0.8 ± 0.3 µM·h. Besides, the Tmax turned out to be 8 ± 1 h in data set [1] (setting [4]) and 4 ± 1 h in data set [1] (setting [5]). For the same compound, the values for the Cmax in data set [1] (setting [6]) and in data set [1] (setting [7]) were 80 ± 20 nM and 100 ± 30 nM, respectively. Further, the “Cumulative urinary excretion, Total 0–24 h” value in data set [2] (week 0) is given as 0.91 ± 0.07 µmol; in data set [2] (week 8), 1.0 ± 0.1 µmol. The Amount excreted in urine, 0- 3 h was 0.09 ± 0.02 µmol in data set [2] (week 0, interval 0–3 h) and 0.1 ± 0.01 µmol in data set [2] (week 8, interval 0–3 h). The Amount excreted in urine, 3-6 h was found to be 0.05 ± 0.01 µmol in data set [2] (week 0, interval 3–6 h) and 0.06 ± 0.01 µmol in data set [2] (week 8, interval 3–6 h). For the same compound, the Amount excreted in urine, 6-9 h worked out at 0.08 ± 0.02 µmol in data set [2] (week 0, interval 6–9 h) and 0.11 ± 0.02 µmol in data set [2] (week 8, interval 6–9 h). For the same compound, the Amount excreted in urine, 9-11 h in data set [2] (week 0, interval 9–11 h) turned out to be 0.064 ± 0.009 µmol; in data set [2] (week 8, interval 9–11 h) it was 0.07 ± 0.02 µmol. The Amount excreted in urine, 11-24 h in data set [2] (week 0, interval 11–24 h) worked out at 0.26 ± 0.02 µmol; in data set [2] (week 8, interval 11–24 h), 0.19 ± 0.04 µmol. Besides, the “Amount of fecal metabolite excreted at 0 h” value in data set [3] (week 0, mean ± SEM, n = 9) was 0.03 ± 0.02 µmol/g; in data set [3] (week 8), 0.020 ± 0.008 µmol/g. Also, the “Amount of fecal metabolite excreted at 24 h” value in data set [3] (week 0) is recorded as 0.03 ± 0.01 µmol/g; in data set [3] (week 8), 0.020 ± 0.007 µmol/g.
